“And” between values parts separate entries of the source, which are not always exact repeats. Equal values may be shown once.
Assay: xn = mol fraction of the nth substance listed

O=C(O)[C@@H]1CCCN1 + O
viscosity [mPa·s], 101 kPa
Conditions	x1 = 0.00045	x1 = 0.0009	x1 = 0.00135	x1 = 0.001798	x1 = 0.002245	x1 = 0.002695	x1 = 0.003143	x1 = 0.003588
293.15 K	1.009	1.018	1.027	1.036	1.045	1.054	1.064	1.073
298.15 K	0.8966	0.9039	0.9114	0.9192	0.9269	0.9349	0.9428	0.9507
303.15 K	0.8027	0.809	0.8154	0.8221	0.8288	0.8354	0.8421	0.8487
308.15 K	0.7236	0.7289	0.7344	0.7401	0.7456	0.7513	0.757	0.7625
313.15 K	0.6566	0.6611	0.6658	0.6705	0.6753	0.68	0.6849	0.6894
318.15 K	0.6007	0.6045	0.6085	0.6125	0.6164	0.6204	0.6244	0.6282

CCCCCCCCCC(=O)OC + CCCCCCCCCCC
viscosity [mPa·s], 100 kPa
Conditions	x2 = 0.0986	x2 = 0.1998	x2 = 0.2992	x2 = 0.3988	x2 = 0.4974	x2 = 0.5994	x2 = 0.6999	x2 = 0.7993	x2 = 0.899
293.15 K	1.97	1.831	1.717	1.611	1.516	1.425	1.342	1.272	1.219
298.15 K	1.783	1.662	1.559	1.468	1.386	1.306	1.234	1.169	1.124
303.15 K	1.625	1.517	1.427	1.344	1.268	1.198	1.137	1.08	1.039
308.15 K	1.487	1.392	1.311	1.237	1.171	1.109	1.053	1.002	0.964
313.15 K	1.368	1.283	1.211	1.145	1.083	1.029	0.978	0.932	0.897
318.15 K	1.264	1.187	1.122	1.062	1.007	0.958	0.912	0.871	0.838
323.15 K	1.172	1.102	1.044	0.99	0.939	0.894	0.853	0.815	0.786

ClC(Cl)Cl + CCCCCC
viscosity [mPa·s], 101 kPa
Conditions	x2 = 0.098	x2 = 0.202	x2 = 0.2873	x2 = 0.4056	x2 = 0.5009	x2 = 0.5885	x2 = 0.7253	x2 = 0.8116	x2 = 0.9008
293.15 K	0.5269	0.4839	0.4558	0.42	0.3965	0.3762	0.3509	0.3368	0.3242
298.15 K	0.5028	0.4606	0.434	0.3996	0.3781	0.3582	0.3341	0.3206	0.309
303.15 K	0.4779	0.4396	0.4142	0.3811	0.3628	0.3413	0.3186	0.3056	0.2945
313.15 K	0.4362	0.3998	0.3783	0.3472	0.3308	0.311	0.2912	0.2786	0.2683

O=C(O)CCl + C[N+](C)(C)CCO.[Cl-]
101 kPa, x2 = 0.333
Conditions	viscosity [mPa·s]
293.15 K	161
298.15 K	117.9
303.15 K	88.59
308.15 K	68.11
313.15 K	53.44
318.15 K	42.65
323.15 K	34.65

ClC(Cl)Cl + CC(C)OC(C)C
298.15 K, 101 kPa
Conditions	viscosity
x1 = 0.07	0.325 mPa·s
x1 = 0.12	0.35 mPa·s
x1 = 0.13	0.353 mPa·s
x1 = 0.16	0.369 mPa·s
x1 = 0.21	0.39 mPa·s
x1 = 0.26	0.413 mPa·s
x1 = 0.31	0.437 mPa·s
x1 = 0.35	0.458 mPa·s
x1 = 0.4	0.484 mPa·s
x1 = 0.46	0.507 mPa·s
x1 = 0.5	0.523 mPa·s
x1 = 0.55	0.543 mPa·s
x1 = 0.6	0.553 mPa·s
x1 = 0.65	0.565 mPa·s
x1 = 0.71	0.572 mPa·s
x1 = 0.76	0.577 mPa·s
x1 = 0.8	0.579 mPa·s
x1 = 0.85	0.581 mPa·s
x1 = 0.9	0.58 mPa·s
x1 = 0.95	0.579 mPa·s and 0.58 mPa·s

ClC(Cl)Cl + CS(C)=O
viscosity [mPa·s], 101.33 kPa
Conditions	x2 = 0.0955	x2 = 0.2039	x2 = 0.3021	x2 = 0.4068	x2 = 0.5023	x2 = 0.6044	x2 = 0.7038	x2 = 0.8047	x2 = 0.9014
298.15 K	0.642	0.839	1.018	1.227	1.365	1.498	1.611	1.729	1.842
308.15 K	0.576	0.738	0.882	1.057	1.171	1.276	1.366	1.458	1.545
318.15 K	0.527	0.682	0.8	0.915	1.011	1.097	1.171	1.246	1.309

O=CC(Cl)(Cl)Cl + CCCC(C)=O
viscosity [mPa·s], 101 kPa
Conditions	x1 = 0.1199	x1 = 0.2489	x1 = 0.3714	x1 = 0.5058	x1 = 0.6071	x1 = 0.7288	x1 = 0.8116	x1 = 0.9001
298.15 K	0.524	0.595	0.6722	0.7399	0.8153	0.8727	0.9343	0.9935
323.15 K	0.4084	0.458	0.5112	0.5571	0.6	0.6402	0.6822	0.7258

From the CheMixHub viscosity set
